The values that follow come from US6861428B2, “Water-soluble phenylpyridazine compounds and compositions containing the same” (Kowa Co., Ltd., priority 2001, dated 2005).

The subject of series [1] is interleukin-1β production. As to the kind of experiment: Inhibitory activity against interleukin-1β production (LPS-stimulated HL-60 cells, ELISA). The series is classed as cell-based. The conditions noted are these: Homo sapiens, 72 h, lipopolysaccharide 10 μg/mL, 3 days. The procedure: Inhibitory Activity Against Interleukin-1β Production
HL-60 cells were cultured for 4 days until confluence on RPMI 1640 medium with 10% fetal bovine serum (FBS) added thereto. The medium was centrifuged. The supernatant was discarded, and the cells were then suspended at 1×10^6 cells/mL on RPMI 1640 medium with 3% FBS, and lipopolysaccharide was added to give a final concentration of 10 μg/mL. The culture was inoculated at 1 mL/well to a 24-well plate. A sample compound was added at 1 μL/well, followed by culturing for 3 days. Three days later, the amount of interleukin-1β in each culture was determined by ELISA. Each IC50 value was determined by a comparison in yield with a control to which no test sample was added.
In general terms: An ELISA detects its analyte on a solid surface through an enzyme-linked reagent.

Another series in a line: Water solubility test. The series is classed as physicochemical. To be noted: for Solubility (%): purified water, from amount of water required for dissolution; for Dissolution in amount of added water: 100 mL purified water added. The procedure: Each sample compound was weighed in the amount shown in Table 3, to which purified water was added in 0.05 mL aliquots. The solubility (%) of the compound was determined based on the amount of water required for its dissolution.

The mark [2] stands for this setting: Table 1, read-out: IL-1β production inhibiting activity IC50.
The mark [3] stands for this setting: Table 2, read-out: IL-1β production inhibiting activity IC50.

Where two headings read alike, the source gives them in different places.

As usually defined, the IC50 is the midpoint of a concentration-inhibition curve. What is called melting point is the temperature of the solid-liquid transition. On to `Cc1ccc(-c2cc(CN(C)C)c(=O)n(CC(C)C)n2)cc1F.Cl` [Example 8, 4-dimethylaminomethyl-6-(3-fluoro-4-methylphenyl)-2-isobutyl-2H-pyridazin-3-one hydrochloride], for which the melting point was 246.5 to 248.5 °C. The IC50 in series [1] (setting [2]) came out at 3.45 µM.

Regarding `COc1ccc(-c2cc(CN3CCN(Cc4ccccc4)CC3)c(=O)n(CC3CC3)n2)cc1F.Cl.Cl` [Example 18, 4-(4-benzyl-1-piperazinyl)methyl-2-cyclopropylmethyl-6-(3-fluoro-4-methoxyphenyl)-2H-pyridazin-3-one dihydrochloride], in series [1] (setting [2]), the IC50 is 5.4 µM. The “Solubility (%)” value in “Water solubility test” came to 1%.

In the case of `COc1ccc(-c2cc(CN3CCNCC3)c(=O)n(CC3CC3)n2)cc1F.Cl.Cl` [Example 21, 2-cyclopropylmethyl-6-(3-fluoro-4-methoxyphenyl)-4-(1-piperazinyl)methyl-2H-pyridazin-3-one dihydrochloride], the IC50 in series [1] (setting [2]) was found to be 1.01 µM. Besides, the “Solubility (%)” value in “Water solubility test” was above 20%.

In the case of `Cc1ccc(-c2cc(CN(C)C)c(=O)n(CC(C)C)n2)cc1.Cl` [Example 45, 4-dimethylaminomethyl-2-isobutyl-6-(4-methylphenyl)-2H-pyridazin-3-one hydrochloride], the IC50 in series [1] (setting [2]) turned out to be 6.21 µM. Further, the “Solubility (%)” value in the series “Water solubility test” is reported as 4%.

Regarding `CCN(CC)Cc1cc(-c2ccc(C)cc2)nn(CC(C)C)c1=O.Cl` [Example 47, 4-diethylaminomethyl-2-isobutyl-6-(4-methylphenyl)-2H-pyridazin-3-one hydrochloride], the IC50 in series [1] (setting [2]) stood at 5.2 µM. In the series “Water solubility test”, the “Solubility (%)” value is above 20%.

`Cc1cc(-c2cc(CN(C)C)c(=O)n(CC(C)C)n2)ccc1F.Cl` [Example 89, 4-dimethylaminomethyl-6-(4-fluoro-3-methylphenyl)-2-isobutyl-2H-pyridazin-3-one hydrochloride]: the IC50 in series [1] (setting [2]) was 5.5 µM. In the series “Water solubility test”, the “Solubility (%)” value is above 20%.

`CSc1ccc(-c2cc(CN(C)C)c(=O)n(CC(C)C)n2)cc1.Cl` [Example 161, 4-dimethylaminomethyl-2-isobutyl-6-[4-(methylthio)phenyl]-2H-pyridazin-3-one hydrochloride] registered a melting point of 216.8 to 218.4 °C. Also, the IC50 in series [1] (setting [2]) was 2.78 µM.

`C#CCNCc1cc(-c2ccc(SC)cc2)nn(CC(C)C)c1=O.Cl` [Example 163, 2-isobutyl-6-[4-(methylthio)phenyl]-4-propargylaminomethyl-2H-pyridazin-3-one hydrochloride]: the melting point was in the range of 197.5 to 198.4 °C. Also, the IC50 in series [1] (setting [2]) stood at 2.78 µM.

`COc1ccc(-c2cc(CN)c(=O)n(CC3CCCC3)n2)cc1F.Cl` [Example 188, 4-aminomethyl-2-cyclopentylmethyl-6-(3-fluoro-4-methoxyphenyl)-2H-pyridazin-3-one hydrochloride]: the “Solubility (%)” value in the series “Water solubility test” is on record as 0.08%.

As to `COc1ccc(-c2cc(CN3CCN(C)CC3)c(=O)n(Cc3ccc(F)cc3)n2)cc1F` [Example 189, 2-(4-fluorobenzyl)-6-(3-fluoro-4-methoxyphenyl)-4-(4-methyl-1-piperazinyl)methyl-2H-pyridazin-3-one], the melting point lay in the range of 112 to 113 °C. The IC50 in series [1] (setting [2]) was found to be 0.87 µM.

For the compound `COc1ccc(-c2cc(CN3CCNCC3)c(=O)n(Cc3ccc(F)cc3)n2)cc1F` [Example 192, 2-(4-fluorobenzyl)-6-(3-fluoro-4-methoxyphenyl)-4-(1-piperazinyl)methyl-2H-pyridazin-3-one], the melting point was in the range of 142 to 143 °C. Also, the IC50 in series [1] (setting [2]) was 0.64 µM.

Turning to `COc1ccc(-c2cc(CN)c(=O)n(Cc3ccc(F)cc3)n2)cc1F.Cl` [Example 195, 4-aminomethyl-2-(4-fluorobenzyl)-6-(3-fluoro-4-methoxyphenyl)-2H-pyridazin-3-one hydrochloride], the “Solubility (%)” value in “Water solubility test” was found to be 0.2%.

As for `COc1ccc(-c2cc(CN)c(=O)n(Cc3ccc(Cl)cc3)n2)cc1F.Cl` [Example 206, 4-aminomethyl-2-(4-chlorobenzyl)-6-(3-fluoro-4-methoxyphenyl)-2H-pyridazin-3-one hydrochloride], the “Solubility (%)” value in the series “Water solubility test” is given as 0.06%.

`COc1ccc(-c2cc(CN3CCN(C)CC3)c(=O)n(Cc3ccc(F)c(F)c3)n2)cc1F` [Example 207, 2-(3,4-difluorobenzyl)-6-(3-fluoro-4-methoxyphenyl)-4-(4-methyl-1-piperazinyl)methyl-2H-pyridazin-3-one]: the melting point was in the range of 135.4 to 136 °C. In addition, the IC50 in series [1] (setting [3]) was found to be 2.7 µM.

With `COc1ccc(-c2cc(CN(C)C)c(=O)n(Cc3ccc(F)c(F)c3)n2)cc1F` [Example 208, 2-(3,4-difluorobenzyl)-4-dimethylaminomethyl-6-(3-fluoro-4-methoxyphenyl)-2H-pyridazin-3-one], the melting point lay within 129.9 to 130.4 °C. Further, the IC50 in series [1] (setting [3]) was 6.1 µM.

`COc1ccc(-c2cc(CN3CCN(C)CC3)c(=O)n(CC=Cc3ccc(Cl)cc3)n2)cc1F` [Example 209, 2-(4-chlorocinnamyl)-6-(3-fluoro-4-methoxyphenyl)-4-(4-methyl-1-piperazinyl)methyl-2H-pyridazin-3-one] gave a melting point of 123.9 to 125.5 °C. The IC50 in series [1] (setting [3]) stood at 2.8 µM.

On to `COc1ccc(-c2cc(CCCN3CCNCC3)c(=O)n(CC3CC3)n2)cc1F` [Example 213, 2-cyclopropylmethyl-6-(3-fluoro-4-methoxyphenyl)-4-[3-(1-piperazinyl)propyl]-2H-pyridazin-3-one], for which the IC50 in series [1] (setting [2]) came to 0.24 µM.

As to `COc1ccc(-c2cc(CCCN3CCNCC3)c(=O)n(CC3CC3)n2)cc1F.Cl.Cl` [Example 214, 2-cyclopropylmethyl-6-(3-fluoro-4-methoxyphenyl)-4-[3-(1-piperazinyl)propyl]-2H-pyridazin-3-one dihydrochloride], the “Solubility (%)” value in the series “Water solubility test” is 10%.

For the compound `COc1ccc(-c2cc(CCCN)c(=O)n(CC3CC3)n2)cc1F` [Example 216, 4-(3-aminopropyl)-2-cyclopropylmethyl-6-(3-fluoro-4-methoxyphenyl)-2H-pyridazin-3-one], the IC50 in series [1] (setting [2]) came to 1.14 µM.

`COc1ccc(-c2cc(CCCN)c(=O)n(CC3CC3)n2)cc1F.Cl` [Example 217, 4-(3-aminopropyl)-2-cyclopropylmethyl-6-(3-fluoro-4-methoxyphenyl)-2H-pyridazin-3-one hydrochloride]: the “Solubility (%)” value in “Water solubility test” came out at 10%.

As for `Cc1cc(-c2cc(CN3CCN(C)CC3)c(=O)n(CCCc3ccc(Cl)cc3)n2)ccc1F` [Example 218, 2-[3-(4-chlorophenyl)propyl]-6-(4-fluoro-3-methylphenyl)-4-(4-methyl-1-piperazinyl)methyl-2H-pyridazin-3-one], the IC50 in series [1] (setting [3]) stood at 6.8 µM.

For the compound `Cc1cc(-c2cc(CN3CCN(C)CC3)c(=O)n(Cc3ccc(Cl)cc3)n2)ccc1F` [Example 222, 2-(4-chlorobenzyl)-6-(4-fluoro-3-methylphenyl)-4-(4-methyl-1-piperazinyl)methyl-2H-pyridazin-3-one], the melting point lay in the range of 133.3 to 133.8 °C. For the same compound, the IC50 in series [1] (setting [3]) amounted to 5.8 µM.

For `Cc1cc(-c2cc(CCCN)c(=O)n(Cc3ccccc3Cl)n2)ccc1F` [Example 227, 4-(3-aminopropyl)-2-(2-chlorobenzyl)-6-(4-fluoro-3-methylphenyl)-2H-pyridazin-3-one], the melting point lay in the range of 80 to 85 °C. In addition, the IC50 in series [1] (setting [3]) came to 5.2 µM.

On to `Cc1cc(-c2cc(CN3CCN(C)CC3)c(=O)n(CCc3ccc(Cl)cc3)n2)ccc1F` [Example 230, 2-[2-(4-chlorophenyl)ethyl]-6-(4-fluoro-3-methylphenyl)-4-(4-methyl-1-piperazinyl)methyl-2H-pyridazin-3-one], for which, in series [1] (setting [3]), the IC50 amounted to 4 µM.

Consider `Cc1cc(-c2cc(CN3CCN(C)CC3)c(=O)n(Cc3c(Cl)cccc3Cl)n2)ccc1F` [Example 231, 2-(2,6-dichlorobenzyl)-6-(4-fluoro-3-methylphenyl)-4-(4-methyl-1-piperazinyl)methyl-2H-pyridazin-3-one], for which the IC50 in series [1] (setting [3]) is 5.7 µM.

As to `COc1ccc(-c2cc(CN3CCN(C)CC3)c(=O)n(CCCc3ccccc3Cl)n2)cc1F` [Example 241, 2-[3-(2-chlorophenyl)propyl]-6-(3-fluoro-4-methoxyphenyl)-4-(4-methyl-1-piperazinyl)methyl-2H-pyridazin-3-one], in series [1] (setting [3]), the IC50 came to 6.4 µM.

Consider `COc1ccc(-c2cc(CN3CCN(C)CC3)c(=O)n(CCCc3ccc(Cl)cc3)n2)cc1F` [Example 242, 2-[3-(4-chlorophenyl)propyl]-6-(3-fluoro-4-methoxyphenyl)-4-(4-methyl-1-piperazinyl)methyl-2H-pyridazin-3-one], for which, in series [1] (setting [3]), the IC50 came to 7.7 µM.

In the case of `CCOC(=O)Nc1cc(-c2ccc(OC)cc2)nn(C/C=C/c2ccc(Cl)cc2)c1=O` [compound 1, reference compound], in “Water solubility test”, the “Dissolution in amount of added water” value is given as “(insoluble)” and the “Solubility (%)” value is listed as below 0.001%.

With `CNC(=O)c1cc(-c2ccc(OC)cc2)nn(CC(C)C)c1=O` [compound 2, reference compound], in the series “Water solubility test”, the “Dissolution in amount of added water” value was “(insoluble)” and the “Solubility (%)” value is below 0.001%.

`COc1ccc(-c2cc(C(=O)O)c(=O)n(C/C=C/c3ccc(Cl)cc3)n2)cc1` [compound 4, reference compound]: in the series “Water solubility test”, the “Dissolution in amount of added water” value is listed as “(insoluble)” and the “Solubility (%)” value is on record as below 0.001%.
